Results from patent publication US7078428B2, “Isoindolone derivatives, preparation process and intermediates of this process, their use as medicaments, and pharmaceutical compositions comprising them” (Sanofi-Aventis Deutschland GmbH, priority 2002, dated 2006).
Counter-ions that a name gives are not always drawn.

What was measured:
[1] = target: T1, NHE1 (Homo sapiens, UniProt P19634); assay: NHE inhibition FLIPR test (intracellular pH recovery, BCECF) in transfected LAP-1 cells; format: cell-based; settings: transfected cell line (parental LAP-1) expressing the NHE-1 subtype, pHi recovery after acidification
T1 construct: expressed in transfected cells
T1 sequence (P19634 whole entry, species assumed): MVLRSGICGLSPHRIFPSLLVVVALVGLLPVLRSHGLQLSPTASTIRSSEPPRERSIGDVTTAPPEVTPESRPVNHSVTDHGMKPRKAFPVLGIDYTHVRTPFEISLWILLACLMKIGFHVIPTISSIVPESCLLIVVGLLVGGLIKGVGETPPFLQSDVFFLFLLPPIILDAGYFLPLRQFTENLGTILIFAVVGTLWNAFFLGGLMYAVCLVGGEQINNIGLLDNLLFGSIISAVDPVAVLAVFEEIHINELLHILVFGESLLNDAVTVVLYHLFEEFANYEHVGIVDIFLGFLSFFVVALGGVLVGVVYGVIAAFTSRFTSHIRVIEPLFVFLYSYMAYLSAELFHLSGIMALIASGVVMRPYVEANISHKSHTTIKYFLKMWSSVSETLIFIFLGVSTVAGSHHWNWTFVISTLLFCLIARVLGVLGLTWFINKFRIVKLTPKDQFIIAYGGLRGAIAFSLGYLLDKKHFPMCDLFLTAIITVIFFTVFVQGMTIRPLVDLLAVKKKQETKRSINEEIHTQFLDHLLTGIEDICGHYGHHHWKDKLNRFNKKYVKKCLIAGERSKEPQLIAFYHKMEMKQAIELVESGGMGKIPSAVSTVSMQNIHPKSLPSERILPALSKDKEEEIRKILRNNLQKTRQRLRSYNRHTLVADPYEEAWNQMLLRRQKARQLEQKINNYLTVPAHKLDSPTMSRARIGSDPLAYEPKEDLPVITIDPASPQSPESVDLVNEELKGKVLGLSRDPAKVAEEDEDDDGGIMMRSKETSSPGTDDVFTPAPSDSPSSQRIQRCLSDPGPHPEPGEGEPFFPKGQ
Procedure: The NHE inhibitory activities (IC50 values) of the compounds according to the invention were determined by a FLIPR test.
The test is performed in the FLIPR (Fluorescent Imaging Plate Reader) equipped with clear-bottomed and black-walled 96-well microtitration plates.
The growth medium for the transfected cells (Iscove +10% foetal calf serum) also comprises G418 as selection antibiotic to ensure the presence of transfected sequences.
The actual test begins by eliminating the growth medium and adding 100 μl of loading buffer per well (5 μM of BCECF-AM [2′,7′-bis(2-carboxyethyl)-5-(6)-carboxyfluoresceine acetoxymethyl ester] in 20 mM of NH4Cl, 115 mM of choline chloride, 1 mM of CaCl2, 5 mM of KCl, 20 mM of HEPES and 5 mM of glucose; pH 7.4 (adjusted with KOH). The cells are then incubated for 20 minutes at 37° C. This incubation results in the loading of the fluorescent dye into the cells, the fluorescence intensity of which depends on the pHi, and on the NH4Cl, which results in a slight basification of the cells.
The precursor BCECF-AM, a non-fluorescent dye, is, as an ester, capable of crossing the membrane. The actual dye, which is incapable of crossing the membrane, is released inside the cell by esterases.
After this 20-minute incubation, the loading buffer, which comprises NH4Cl and free BCECF-AM, is removed by washing three times in the cell washing device (Tecan Columbus), each wash being performed with 400 μl of washing buffer (133.8 mM of choline chloride, 4.7 mM of KCl, 1.25 mM of MgCl2, 1.25 mM of CaCl2, 0.97 mM of K2HPO4, 0.23 mM of KH2PO4, 5 mM of HEPES and 5 mM of glucose; pH 7.4 (adjusted with KOH)). The residual volume remaining in the wells is 90 μl (possibly between 50 and 125 μl). This washing step removes the free BCECF-AM and results in an intracellular acidification (pHi of 6.3-6.4) due to the removal of the external ammonium ions.
As the equilibrium of the intracellular ammonium with the aqueous ammonia and the protons, by removal of the extracellular ammonium and by the subsequent immediate crossing of the aqueous ammonia across the cell membrane, is disrupted, the washing process results in intracellular protons remaining, which is the cause of the intracellular acidification. This acidification can result finally in the death of the cells if it lasts long enough. It is important here for the washing buffer to be free of sodium (<1 mM), otherwise the extracellular sodium ions would result in an immediate increase in the pHi on account of the activity of the cloned NHE isoforms. It is also important for all the buffers used (loading buffer, washing buffer and regeneration buffer) not to contain any HCO3-ions, otherwise the presence of bicarbonate would result in the activation of bicarbonate-dependent systems that disrupt the pHi regulation, which systems are contained in the LAP-1 parental cell line.
The microtiter plates containing acidified cells are then transferred (up to 20 minutes after the acidification) to the FLIPR. In the FLIPR, the intracellular fluorescent dye is activated with light of a wavelength of 488 nm, which is generated by an argon laser, and the measuring parameters (laser power, illumination time and diaphragm of the […] camera integrated into the FLIPR) are chosen such that the average value of the fluorescent signal per well is between 30,000 and 35,000 relative fluorescence units.
The actual measurement in the FLIPR starts with a photograph being taken by the CCD camera every two seconds under software control. After 10 seconds, the increase in the intracellular pH is initiated by adding 90 μl of regeneration buffer (133.8 mM of NaCl, 4.7 mM of KCl, 1.25 mM of MgCl2, 1.25 mM of CaCl2, 0.97 mM of K2HPO4, 0.23 mM of KH2PO4, 10 mM of HEPES and 5 mM of glucose; pH 7.4 (adjusted with NaOH)) using a 96-well pipette device incorporated into the FLIPR. Some wells, to which is added pure regeneration buffer, serve as positive controls (100% NHE activity). […]

Compound	IC50 [1]	melting point
CC(C)CN1C(=O)c2cc(Cl)c(Cl)cc2C1CC(=O)N=C(N)N (stereo not drawn) [Example 18, N-[2-(5,6-Dichloro-2-isobutyl-3-oxo-2,3-dihydro-1H-isoindol-1-yl)acetyl]guanidine]	26 nM	154 °C
CC(C)CN1C(=O)c2c(F)ccc(F)c2C1CC(=O)N=C(N)N (stereo not drawn) [Example 19, N-[2-(4,7-Difluoro-2-isobutyl-3-oxo-2,3-dihydro-1H-isoindol-1-yl)acetyl]guanidine]	11 nM	212 °C
N-[2-(6-Chloro-2-cyclopropylmethyl-3-oxo-2,3-dihydro-1H-isoindol-1-yl )-acetyl]-guanidine and N-[2-(5-Chloro-2-cyclopropylmethyl-3-oxo-2,3-dihydro-1H-isoindol-1 yl)-acetyl]-guanidine [Example 24]	7.7 nM	–
NC(N)=NC(=O)CC1c2cc(Cl)c(Cl)cc2C(=O)N1CC(F)(F)F (single isomer, unassigned) [Example 44c]	260 nM	–
NC(N)=NC(=O)CC1c2cc(Cl)ccc2C(=O)N1CCC(F)(F)F (single isomer, unassigned) [Example 49b]	13 nM	–
NC(N)=NC(=O)CC1c2cc(C(F)(F)F)ccc2C(=O)N1CC(F)(F)F (single isomer, unassigned) [Example 48, N-{2-[3-Oxo-2-(2,2,2-trifluoro-ethyl)-6-trifluoromethyl-2,3-dihydro-1H-isoindol-1-yl]-acetyl}-guanidine hydrogen fumarate]	0.2 nM	–
N-[2-(5-Chloro-2-isobutyl-3-oxo-2,3-dihydro-1H-isoindol-1-yl)acetyl]guanidine and N-[(6-Chloro-2-isobutyl-3-oxo-2,3-dihydro-1H-isoindol-1-yl)acetyl]guanidine [Example 12]	7 nM	–
[H]/N=C(\N)NC(=O)CC1c2cc(S(C)(=O)=O)ccc2C(=O)N1CC(F)(F)F (single isomer, unassigned) [Example 36b]	6 nM	–
N=C(N)NC(=O)CC1c2cc(F)c(F)cc2C(=O)N1CCC(F)(F)F (single isomer, unassigned) [Example 40a]	263 nM	–
N=C(N)NC(=O)CC1c2cc(F)c(F)cc2C(=O)N1CCC(F)(F)F (racemic) [Example 40, (R)-N-{2-[5,6-Difluoro-3-oxo-2-(3,3,3-trifluoro-propyl)-2,3-dihydro-1H-isoindol-1-yl]-acetyl}-guanidine and (S)-N-{2-[5,6-Difluoro-3-oxo-2-(3,3,3-trifluoro-propyl)-2,3-dihydro-1H-isoindol-1-yl]-acetyl}-guanidine]	29 nM	–
[H]/N=C(\N)NC(=O)CC1c2cc(Cl)c(Cl)cc2C(=O)N1CC1CC1 (single isomer, unassigned) [Example 42b]	3 nM	–
Cc1ccc2c(c1)C(CC(=O)NC(=N)N)N(CC(C)C)C2=O (stereo not drawn) [Example 35, N-[(2-Isobutyl-6-methyl-3-oxo-2,3-dihydro-1H-isoindol-1-yl)acetyl]guanidine]	38 nM	–
CC(C)CN1C(=O)c2cccc(F)c2C1CC(=O)N=C(N)N (stereo not drawn) [Example 17, N-[2-(7-Fluoro-2-isobutyl-3-oxo-2,3-dihydro-1H-isoindol-1-yl)acetyl]guanidine]	43 nM	–
Cc1cccc2c1C(=O)N(CC(C)C)C2CC(=O)N=C(N)N (stereo not drawn) [Example 20, N-[2-(2-Isobutyl-4-methyl-3-oxo-2,3-dihydro-1H-isoindol-1-yl)-acetyl]-guanidine]	18 nM	–
NC(N)=NC(=O)CC1c2cc(Cl)ccc2C(=O)N1CC1CC1 (single isomer, unassigned) [Example 55b]	20 nM	–
NC(N)=NC(=O)CC1c2cc(C(F)(F)F)ccc2C(=O)N1CC1CC1 (single isomer, unassigned) [Example 38b]	5 nM	–

Compound	IC50 [1]	melting point
N-[2-(5-Bromo-2-isobutyl-3-oxo-2,3-dihydro-1H-isoindol-1-yl)acetyl]guanidine and N-[(6-Bromo-2-isobutyl-3-oxo-2,3-dihydro-1H-isoindol-1-yl)acetyl]guanidine [Example 13]	22 nM	–
NC(N)=NC(=O)CC1c2cc(C(F)(F)F)ccc2C(=O)N1CCC(F)(F)F (single isomer, unassigned) [Example 51b]	171 nM	–
NC(N)=NC(=O)CC1c2cc(Cl)c(Cl)cc2C(=O)N1C1CC1 (racemic) [Example 43, (R)-N-[2-(5,6-Dichloro-2-cyclopropyl-3-oxo-2,3-dihydro-1H-isoindol-1-yl)-acetyl]-guanidine and (S)-N-[2-(5,6-Dichloro-2-cyclopropyl-3-oxo-2,3-dihydro-1H-isoindol-1-yl)-acetyl]-guanidine]	30 nM	–
[H]/N=C(\N)NC(=O)CC1c2cc(Cl)c(Cl)cc2C(=O)N1CCC(F)(F)F (stereo not drawn) [Example 41a, N-{2-[5,6-Dichloro-3-oxo-2-(3,3,3-trifluoro-propyl)-2,3-dihydro-1H-isoindol-1-yl]-acetyl}-guanidine acetate]	3 nM	–
N-[2-(2-Cyclopropylmethyl-3-oxo-5-trifluoromethyl-2,3-dihydro-1H-isoindol-1-yl)acetyl]-guanidine and N-[2-(2-cyclopropylmethyl-3-oxo-6-trifluoromethyl-2,3-dihydro-1H-isoindol-1-yl)acetyl]guanidine [Example 25]	10 nM	–
N=C(N)NC(=O)CC1c2ccccc2C(=O)N1CC(F)(F)F (stereo not drawn) [Example 22, N-[2-(3-Oxo-2-(2,2,2-trifluoroethyl)-2,3-dihydro-1H-isoindol-1-yl)acetyl]guanidine]	100 nM	–
[H]/N=C(\N)NC(=O)CC1c2cc(Cl)c(Cl)cc2C(=O)N1CCC(F)(F)F (single isomer, unassigned) [Example 41b]	41 nM	–
NC(N)=NC(=O)CC1c2cc(Cl)ccc2C(=O)N1CCCC(F)(F)F (single isomer, unassigned) [Example 53a]	83 nM	–
[H]/N=C(\N)NC(=O)CC1c2cc(Cl)c(Cl)cc2C(=O)N1CCC(F)(F)F (single isomer, unassigned) [Example 41c]	19 nM	–
N-[2-(5-Chloro-3-oxo-2-(4,4,4-trifluorobutyl)-2,3-dihydro-1H-isoindol-1-yl)acetyl]-guanidine and N-[2-(6-chloro-3-oxo-2-(4,4,4-trifluorobutyl)-2,3-dihydro-1H-isoindol-1yl)acetyl]guanidine [Example 28]	88 nM	–
NC(N)=NC(=O)CC1c2cc(C(F)(F)F)ccc2C(=O)N1CC(F)(F)F (single isomer, unassigned) [Example 46a]	19 nM	–
NC(N)=NC(=O)CC1c2ccc(Cl)cc2C(=O)N1CCC(F)(F)F (single isomer, unassigned) [Example 50a]	9 nM	–
[H]/N=C(\N)NC(=O)CC1c2cc(Cl)c(Cl)cc2C(=O)N1CC1CC1 (racemic) [Example 42, (R)-N-[2-(5,6-Dichloro-2-cyclopropylmethyl-3-oxo-2,3-dihydro-1H-isoindol-1-yl)-acetyl]-guanidine and (S)-N-[2-(5,6-Dichloro-2-cyclopropylmethyl-3-oxo-2,3-dihydro-1H-isoindol-1-yl)-acetyl]-guanidine]	18 nM	–
NC(N)=NC(=O)CC1c2ccc(C(F)(F)F)cc2C(=O)N1CC(F)(F)F (single isomer, unassigned) [Example 47b]	5790 nM	–
CC(C)CN1C(=O)c2ccccc2C1CC(=O)N=C(N)N (stereo not drawn) [Example 2, N-[2-(2-Isobutyl-3-oxo-2,3-dihydro-1H-isoindol-1-yl)acetyl]guanidine]	59 nM	–
